Assays:
Format in all cases: in vivo, mouse (C57BL/6J male, 60% HFD DIO)
[1] = Example 2: body weight and body weight change rate, combined administration of HTD1801 and dapagliflozin or empagliflozin in DIO obesity model; settings: for Body weight (mean) / Body weight change rate: HTD1801 250 mpk, dapagliflozin 10 mpk, empagliflozin 15 mpk p.o. QD, semaglutide 10 nmol/kg s.c. Q3D
From the text: (§1) After 5-6-week-old C57BL/6J male mice were acclimatized for 1 week, the weight of each mouse was weighed, and the mice were randomly divided into a control group and a model group by taking the weight as a main index, where 12 mice in the control group were fed with common feed (CD), and the mice in the remaining model group were fed with 60% high-fat feed (60% HFD) for 10-12 weeks to construct a DIO obesity model, with the average body weight being not less than 40 g. The mice fed with 60% HFD were grabbed and acclimatized with a solvent for 3 days, where the acclimatization with a solvent was performed by oral gavage of 0.5% CMC-Na, once daily.
(§2) The food intake, the body weight, the body fat ratio, and the insulin level of the mice were respectively measured, followed by fasting blood glucose level, and the mice were randomly grouped according to Table 12 by taking the body weight as an index, and the remaining ungrouped mice were euthanized. After grouping, each group of mice was administered according to Table 12, the day of administration was defined as DO, and the administration volume of each drug was determined based on the results obtained by the calculation of 5 μL/g× mouse body weight (g).
(§3) For the combined administration group, the administration sequence and the administration time were kept consistent at each administration. The mice were continuously fed with high-fat feed during the administration period until the administration was finished. During administration, 1 food intake was measured per week (difference in feed weights at an interval of 24 h was measured); each group of mice was weighed once daily; blood was collected from the tail tip on day 16 and day 30, respectively, so as to measure fasting blood glucose levels once (blood was collected after fasting from 9:00 am to 3:[…]); on day 24 of administration (D23), the body fat ratio and the lean mass of each group of mice were measured by MRI (the measurement period was kept consistent with that before grouping); after 25 days of administration intervention (day 24), each group of mice was fasted for 6 h and subjected to OGTT (0 min, 15 min, 30 min, 60 min, 90 min, 120 min) to detect their blood glucose levels; after 29 days of administration intervention (day 28), each group of mice was fasted for 6 h and subjected to OGTT (0 min, 15 min, 30 min, 60 min, 90 min, 120 min), and meanwhile subjected to blood sampling via submaxillary vein (0 min, 15 min, 30 min, about 30 μL of blood sampled each time), and then the blood plasma was separated for detecting the insulin level by ELISA, where the separated blood plasma was more than 10 μL; the next day (D30) at the end of administration was set as the test endpoint, and the mice were fasted for 6 h in the morning and subjected to fasting blood glucose level measurement; subsequently, the mice were euthanized with CO2, blood was collected from the heart of each mouse for analysis, and each group of mice was dissected; the liver and subcutaneous, epididymal and mesenteric fat was collected, photographed and weighed, respectively.

[2] = Example 2: body fat mass by MRI on day 23
From the text: as §1, §2, §3
The body weight, the body fat mass and the body fat ratio of each animal in groups G1 to G8 were measured on day 23 and averaged for each group, and the results are shown in Table 15 below, and FIGS. 21 and 22.

[3] = Example 2: lean mass by MRI on day 23
From the text: as §1, §2, §3
The body weight, the lean mass and the lean ratio of each animal in groups G1 to G8 were measured on day 23 and averaged for each group, and the results are shown in Table 16 below, and FIGS. 23 and 24.

[4] = mean, day 23, HTD1801 250 mpk, dapagliflozin 10 mpk, empagliflozin 15 mpk p.o. QD

In the case of CCOc1ccc(Cc2cc([C@@H]3O[C@H](CO)[C@@H](O)[C@H](O)[C@H]3O)ccc2Cl)cc1 [Dapagliflozin, dapagliflozin], the body weight decrease ([1]; dapagliflozin 10 mpk p.o. QD) is reported as 3.4%, the “Body weight (mean)” value ([1]; day 0 (baseline)) is reported as 45.4 g and the “Body weight change rate” value ([1]; day 0 (baseline)) is reported as 0.0%. The “Body weight (mean)” value ([1]; day 1) was 45.5 g, the “Body weight change rate” value ([1]; day 1) was 0.3% and the “Body weight (mean)” value ([1]; day 2) was 45.3 g. The “Body weight change rate” value ([1]; day 2) was −0.1%, the “Body weight (mean)” value ([1]; day 3) was 45.1 g and the “Body weight change rate” value ([1]; day 3) was −0.6%. The “Body weight (mean)” value ([1]; day 4) was 44.8 g, the “Body weight change rate” value ([1]; day 4) was −1.2% and the “Body weight (mean)” value ([1]; day 5) was 44.3 g. The “Body weight change rate” value ([1]; day 5) was −2.4%, the “Body weight (mean)” value ([1]; day 6) was 44.1 g and the “Body weight change rate” value ([1]; day 6) was −2.7%. For the same compound, the “Body weight (mean)” value ([1]; day 7) was 44.0 g, the “Body weight change rate” value ([1]; day 7) was −2.9% and the “Body weight (mean)” value ([1]; day 8) was 43.7 g. The “Body weight change rate” value ([1]; day 8) was −3.7%, the “Body weight (mean)” value ([1]; day 9) was 43.4 g and the “Body weight change rate” value ([1]; day 9) was −4.4%. The “Body weight (mean)” value ([1]; day 10) was 43.5 g, the “Body weight change rate” value ([1]; day 10) was −4.2% and the “Body weight (mean)” value ([1]; day 11) was 43.2 g. For the same compound, the “Body weight change rate” value ([1]; day 11) was −4.7%, the “Body weight (mean)” value ([1]; day 12) was 43.1 g and the “Body weight change rate” value ([1]; day 12) was −4.9%. For the same compound, the “Body weight (mean)” value ([1]; day 13) was 42.6 g, the “Body weight change rate” value ([1]; day 13) was −6.1% and the “Body weight (mean)” value ([1]; day 14) was 42.7 g. For the same compound, the “Body weight change rate” value ([1]; day 14) was −6.0%, the “Body weight (mean)” value ([1]; day 15) was 42.9 g and the “Body weight change rate” value ([1]; day 15) was −5.5%. For the same compound, the “Body weight (mean)” value ([1]; day 16) was 42.8 g, the “Body weight change rate” value ([1]; day 16) was −5.7% and the “Body weight (mean)” value ([1]; day 17) was 43.2 g. For the same compound, the “Body weight change rate” value ([1]; day 17) was −4.7%, the “Body weight (mean)” value ([1]; day 18) was 43.3 g and the “Body weight change rate” value ([1]; day 18) was −4.5%. The “Body weight (mean)” value ([1]; day 19) was 43.5 g, the “Body weight change rate” value ([1]; day 19) was −4.2% and the “Body weight (mean)” value ([1]; day 20) was 43.5 g. The “Body weight change rate” value ([1]; day 20) was −4.1%, the “Body weight (mean)” value ([1]; day 21) was 43.9 g and the “Body weight change rate” value ([1]; day 21) was −3.3%. For the same compound, the “Body weight (mean)” value ([1]; day 22) was 43.9 g, the “Body weight change rate” value ([1]; day 22) was −3.3% and the “Body weight (mean)” value ([1]; day 23) was 43.8 g. For the same compound, the “Body weight change rate” value ([1]; day 23) was −3.5%, the “Body weight (mean)” value ([1]; day 24) was 43.5 g and the “Body weight change rate” value ([1]; day 24) was −4.2%. The “Body weight (mean)” value ([1]; day 25) was 43.9 g, the “Body weight change rate” value ([1]; day 25) was −3.2% and the “Body weight (mean)” value ([1]; day 26) was 44.2 g. For the same compound, the “Body weight change rate” value ([1]; day 26) was −2.5%, the “Body weight (mean)” value ([1]; day 27) was 44.3 g and the “Body weight change rate” value ([1]; day 27) was −2.4%. For the same compound, the “Body weight (mean)” value ([1]; day 28) was 43.9 g, the “Body weight change rate” value ([1]; day 28) was −3.2% and the “Body weight (mean)” value ([1]; day 29) was 43.8 g. The “Body weight change rate” value ([1]; day 29) was −3.4%, the “increase of body fat relative to control group G2” value ([2]; day 23) was “about 8.6%” and the “body fat mass and body fat ratio (in words)” value ([2]; day 23, relative to control group G2) was “increased”. The Body weight ([2]; mean, day 23 (Table 15), HTD1801 250 mpk, dapagliflozin 10 mpk, empagliflozin 15 mpk p.o. QD) was 43.8 g, the Body fat ratio [2, 4] was 48.8% and the “Fat (body fat mass)” value [2, 4] was 21.4 g. The “lean ratio (in words)” value ([3]; day 23, relative to model control group G2) was “slightly decreased”, the Body weight ([3]; mean, day 23 (Table 16), HTD1801 250 mpk, dapagliflozin 10 mpk, empagliflozin 15 mpk p.o. QD) was 43.8 g and the “Lean (lean mass)” value [3, 4] was 4.3 g. The Lean ratio [3, 4] was 9.9%.

Source: patent US20260373165A1, “PHARMACEUTICAL COMBINATIONS AND COMPOSITIONS, AND METHODS OF USE THEREOF” (SHENZHEN HIGHTIDE BIOPHARMACEUTICAL LTD., priority 2022, published 2026)
